Assay results taken from ChEMBL document CHEMBL1765054 (J Med Chem, 2011).

Key:
Format in all cases: ADME, organism-based
[1] = Tmax in C57BL/6 mouse at 10 mg/kg, po; set-up: dose 10 mg/kg, route oral; conditions: in vivo
[2] = Cmax in C57BL/6 mouse at 1 mg/kg, iv; set-up: dose 1 mg/kg, route intravenous; conditions: in vivo
[3] = Volume of distribution at steady state in C57BL/6 mouse at 1 mg/kg, iv; set-up: dose 1 mg/kg, route intravenous; conditions: in vivo, read-out: Vdss
[4] = AUC in C57BL/6 mouse at 10 mg/kg, po; set-up: dose 10 mg/kg, route oral; conditions: plasma
Mus musculus = test: Bioavailability in C57BL/6 mouse at 10 mg/kg; conditions: in vivo
[5] = Cmax in C57BL/6 mouse at 10 mg/kg, po; set-up: dose 10 mg/kg, route oral; conditions: in vivo

Question: With `O=c1ccc2cnc3ccc(-c4cnc5[nH]ccc5c4)cc3c2n1-c1ccc(F)c(C(F)(F)F)c1` as the compound, how does the Tmax [1] read?
Answer: 60 min

Question: What about the Cmax [2] of the same compound?
Answer: 1640 ng/mL

Question: And the Vd [3]?
Answer: 1.3 L/kg

Question: What about the AUC [4] of the same compound?
Answer: 352 ng·h/mL

Question: What about the F (Mus musculus) of the same compound?
Answer: 4.2%

Question: And the Cmax [5]?
Answer: 98 ng/mL

Question: For `Nc1ccc(-c2ccc3ncc4ccc(=O)n(-c5cccc(C(F)(F)F)c5)c4c3c2)cn1`, which Cmax [2] is on record?
Answer: 1540 ng/mL

Question: What about the AUC [4] of the same compound?
Answer: 4310 ng·h/mL

Question: And the F (Mus musculus)?
Answer: 51%

Question: And the Cmax [5]?
Answer: 3970 ng/mL

Question: Which Tmax [1] does the source give for `Cc1cc(-n2c(=O)ccc3cnc4ccc(-c5cn[nH]c5)cc4c32)ccc1F` here?
Answer: 30 min

Question: What about the Cmax [2] of the same compound?
Answer: 1040 ng/mL

Question: What about the Vd [3] of the same compound?
Answer: 1.16 L/kg

Question: And the AUC [4]?
Answer: 2410 ng·h/mL

Question: And the F (Mus musculus)?
Answer: 21.6%

Question: And the Cmax [5]?
Answer: 853 ng/mL

Question: Which Tmax [1] does the source give for `O=c1ccc2cnc3ccc(-c4cn[nH]c4)cc3c2n1-c1ccc(F)c(C(F)(F)F)c1` here?
Answer: 30 min

Question: What about the Vd [3] of the same compound?
Answer: 2.42 L/kg

Question: What about the AUC [4] of the same compound?
Answer: 755 ng·h/mL

Question: What about the F (Mus musculus) of the same compound?
Answer: 19.2%

Question: And the Cmax [5]?
Answer: 430 ng/mL

Question: For `Cc1cc(-n2c(=O)ccc3cnc4ccc(-c5cnn(C)c5)cc4c32)ccc1F`, which Tmax [1] is on record?
Answer: 30 min

Question: And the Vd [3]?
Answer: 1.08 L/kg

Question: What about the AUC [4] of the same compound?
Answer: 2070 ng·h/mL

Question: What about the F (Mus musculus) of the same compound?
Answer: 28%

Question: What about the Cmax [5] of the same compound?
Answer: 1040 ng/mL
